Measurements from PubChem BioAssay (NCI).
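Following 48 hours of exposure in 96-well plates, responses at five concentrations were used to interpolate endpoints linearly. Abbreviation: GI50, concentration required for 50% inhibition of growth. TGI: concentration producing complete growth inhibition.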

Tests used:
Test in all cases: DTP human tumour cell line panel, 48 h
[1] = tested on: A498 renal
[2] = tested on: COLO 205 colon
[3] = tested on: DLD-1 colon
[4] = tested on: HOP-18 NSCLC
[5] = tested on: HOP-92 NSCLC
[6] = tested on: KM20L2 colon
[7] = tested on: M19-MEL melanoma
[8] = tested on: NCI-H23 lung
[9] = tested on: SK-MEL-5 melanoma
[10] = tested on: SNB-78 CNS
[11] = tested on: UACC-257 melanoma
[12] = tested on: XF 498 CNS
[13] = tested on: MDA-MB-231 breast

Cc1cccc(=O)c([O-])c1.Cc1cccc(=O)c([O-])c1.Cc1cccc(=O)c([O-])c1.Cc1cccc(=O)c([O-])c1.[Th+4]
TGI [1]: 81.6 µM
TGI [2]: > 100 µM
TGI [3]: > 100 µM
TGI [4]: > 100 µM
TGI [5]: > 68.9 µM
TGI [6]: > 100 µM
TGI [7]: 61.8 µM
TGI [8]: > 76.6 µM
TGI [9]: 31.9 µM
TGI [10]: > 100 µM
TGI [11]: > 63 µM
GI50 [12]: 23.3 µM
TGI [12]: 64.9 µM

O=P1(N(CCCl)CCCl)NCCCO1 (centres undefined)
TGI [1]: > 250 µM
TGI [2]: > 250 µM
TGI [3]: > 250 µM
TGI [4]: 150 µM
TGI [5]: > 250 µM
TGI [6]: > 250 µM
TGI [7]: > 250 µM
TGI [13]: > 250 µM
TGI [8]: > 250 µM
TGI [9]: > 250 µM
TGI [10]: > 216 µM
TGI [11]: > 250 µM
TGI [12]: 180 µM

COc1ccccc1NC(=O)CSC(N)=O
TGI [1]: > 100 µM
TGI [2]: > 100 µM
TGI [3]: > 100 µM
TGI [4]: > 100 µM
TGI [5]: > 100 µM
TGI [6]: > 100 µM
TGI [7]: > 100 µM
TGI [8]: > 100 µM
TGI [9]: > 100 µM
TGI [10]: > 100 µM
TGI [11]: > 100 µM
TGI [12]: 83.6 µM

O=c1n(C2CCCCC2)c(=C(Cl)Cl)c(=C(Cl)Cl)n1C1CCCCC1
TGI [1]: > 100 µM
TGI [2]: > 100 µM
TGI [3]: > 100 µM
TGI [4]: > 100 µM
TGI [6]: > 100 µM
TGI [7]: > 100 µM
TGI [8]: > 100 µM
TGI [9]: > 100 µM
TGI [10]: > 100 µM
TGI [11]: > 100 µM
TGI [12]: > 100 µM
